What follows are compounds tested against T1, human recombinant GPR65 (Homo sapiens, UniProt Q8IYL9) (assay: Human GPR65 cAMP HTRF antagonist assay). Conditions: not given.
T1 construct: host or cells: 1321N1 human astrocytoma cells (1321N1-hrGPR65)
Type: cell-based
Description: In one preferred embodiment, the compound prevents the increase in cytoplasmic cAMP levels expected following GPR65 activation at acidic pH. This prevention of cAMP accumulation in turn prevents downstream signalling through ICER, as described above. The “Human GPR65 cyclic adenosine monophosphate (cAMP) Homogeneous Time Resolved Fluorescence (HTRF) antagonist assay”, or simply “cAMP assay”, as described in the accompanying examples, can be used to measure the potency of GPR65 modulators, which is expressed as the concentration of compound required to reduce the increase in cAMP concentration upon GPR65 activation by 50% (i.e. an IC50).
Human GPR65 Cyclic Adenosine Monophosphate (cAMP) Homogeneous Time Resolved Fluorescence (HTRF) Antagonist Assay Procedure
IC50 data was obtained by the following procedure:
1321N1 human astrocytoma cells stably expressing human recombinant GPR65 (1321N1-hrGPR65 cells, EuroscreenFast) were cultured according to the vendor's instructions.
Compounds were tested for their ability to antagonise GPR65, through measuring the concentration of cytoplasmic cAMP following treatment of the cells at a pH of 7.2 to activate GPR65 signalling and addition of the compound to be tested. The extent to which the expected rise in cAMP concentration upon GPR65 activation was suppressed by the added compound is indicative of its potency. The assay was carried out according to EuroscreenFast assay methodology as follows.
On the day of the assay, test compounds were added to 384-well, low volume, white microtiter plates by acoustic dispensing. KRH buffer (5 mM KCl, 1.25 mM MgSO4, 124 mM NaCl, 25 mM HEPES, 13.3 mM Glucose, 1.25 mM KH2PO4 and 1.45 mM CaCl2) was adjusted to pH 6.5, pH 7.6 and pH 8.4 by adding NaOH. 1321N1-hGPR65 cells were rapidly thawed and diluted in KRH, pH 7.6 prior to centrifugation at 300×g for 5 min and resuspension in assay buffer (KRH, pH 7.6, supplemented with 1 mM 3-isobutyl-1-methylxanthine (IBMX) and 200 μM ethylenediaminetetraacetic acid (EDTA)). Cells were added to assay plates at a density of 2,000 cells per well in a volume of 5 μl. Assay plates were briefly centrifuged at 100×g and then incubated at room temperature for 30 min. Cells were stimulated by the addition of 5 μL KRH, pH 6.5, to achieve an assay pH of 7.2, while control wells received 5 μl KRH, pH 8.4 to achieve an assay pH of 7.9. Assay plates were briefly centrifuged at 100×g and then incubated at room temperature for 30 min.
Accumulation of cAMP was detected by cAMP HTRF kit (Cisbio). d2-labeled cAMP and cryptate-labeled anti-cAMP antibody in Lysis and Detection Buffer (Cisbio) were added to assay plates, and the plates were incubated at room temperature for 1 h. HTRF measurements were performed using a Pherastar FSX instrument. Acceptor and donor emission signals were measured at 665 nm and 620 nm, respectively, and HTRF ratios were calculated as signal665 nm/signal620 nm×104. Data were normalised to high and low control values and fitted with 4-parameter logistic regression to determine hGPR65 IC50 values for the test compounds, which are shown in Table 1.

T1 sequence (Q8IYL9 whole entry): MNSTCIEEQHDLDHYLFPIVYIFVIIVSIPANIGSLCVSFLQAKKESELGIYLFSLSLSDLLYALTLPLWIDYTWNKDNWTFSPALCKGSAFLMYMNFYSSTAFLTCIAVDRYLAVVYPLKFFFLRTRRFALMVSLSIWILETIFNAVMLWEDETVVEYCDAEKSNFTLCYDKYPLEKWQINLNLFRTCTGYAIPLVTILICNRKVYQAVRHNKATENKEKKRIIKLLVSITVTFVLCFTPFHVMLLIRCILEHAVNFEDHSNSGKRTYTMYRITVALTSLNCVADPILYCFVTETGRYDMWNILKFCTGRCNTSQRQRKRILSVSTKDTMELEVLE

Row | Structure (SMILES) | IC50 [nM]
1 | O=C(Nc1ccc(C(F)(F)F)c(Br)c1)N1C2CCC1c1cncnc1C2 (racemic) [Compound 15, (±)-N-(3-Bromo-4-(trifluoromethyl)phenyl)-6,7,8,9-tetrahydro-5H-5,8-epiminocyclohepta[d]pyrimidine-10-carboxamide] | < 500
2 | O=C(Nc1ccc(Cl)c(Br)c1)N1[C@H]2CC[C@@H]1c1c[nH]c(=O)cc1C2 [Compound 145, (6S,9R)-N-(3-Bromo-4-chlorophenyl)-3-oxo-3,5,6,7,8,9-hexahydro-2H-6.9-epiminocyclohepta[c]pyridine-10-carboxamide] | < 500
3 | O=C(Nc1ccc(Cl)c(Cl)c1)N1[C@H]2CC[C@@H]1c1cncnc1C2 [Compound 52, (5R,8S)-N-(3,4-Dichlorophenyl)-6,7,8,9-tetrahydro-5H-5,8-epiminocyclohepta[d]pyrimidine-10-carboxamide] | < 500
4 | O=C(Nc1cc(Cl)c(Cl)cc1F)N1C2CCC1c1ccc(F)nc1C2 (racemic) [Compound 181, (±)-N-(4,5-Dichloro-2-fluorophenyl)-2-fluoro-6,7,8,9-tetrahydro-5H-5,8-epiminocyclohepta[b]pyridine-10-carboxamide] | < 500
5 | O=C(Nc1ccc(-c2ccccc2)cc1)N1[C@H]2CC[C@@H]1c1ccnc(F)c1C2 [Compound 192, (5R,8S)-N-([1,1′-Biphenyl]-4-yl)-1-fluoro-6,7,8,9-tetrahydro-5H-5,8-epiminocyclohepta[c]pyridine-10-carboxamide] | < 500
6 | O=C(Nc1ccc(C(F)(F)F)c(Cl)c1)N1[C@H]2CC[C@@H]1c1c[nH]c(=O)nc1C2 [Compound 43, (5R,8S)-N-(3-Chloro-4-(trifluoromethyl)phenyl)-2-oxo-3,5,6,7,8,9-hexahydro-2H-5,8-epiminocyclohepta[d]pyrimidine-10-carboxamide] | < 500
7 | O=C(Nc1ccc(OC(F)F)c(Cl)c1)N1[C@H]2CC[C@@H]1c1c[nH]c(=O)cc1C2 [Compound 127, (6S,9R)-N-(3-Chloro-4-(difluoromethoxy)phenyl)-3-oxo-3,5,6,7,8,9-hexahydro-2H-6,9-epiminocyclohepta[c]pyridine-10-carboxamide] | < 500
8 | O=C(Nc1ccc(Cl)c(Cl)c1)N1[C@H]2CC[C@@H]1c1cnc(F)cc1C2 [Compound 91, (6S,9R)-N-(3,4-Dichlorophenyl)-3-fluoro-6,7,8,9-tetrahydro-5H-6.9-epiminocyclohepta[c]pyridine-10-carboxamide] | < 500
9 | O=C(Nc1ccc(C(F)(F)F)c(Cl)c1)N1C2CCC1c1ccncc1C2 (racemic) [Compound 35, (±)-N-(3-Chloro-4-(trifluoromethyl)phenyl)-6,7,8,9-tetrahydro-5H-5,8-epiminocyclohepta[c]pyridine-10-carboxamide] | < 500
10 | O=C(Nc1ccc(Br)c(Cl)c1)N1C2CCC1c1cncnc1C2 (racemic) [Compound 7, (±)-N-(4-Bromo-3-chlorophenyl)-6,7,8,9-tetrahydro-5H-5,8-epiminocyclohepta[d]pyrimidine-10-carboxamide] | < 500
11 | O=C(Nc1cc(Cl)c(Br)cc1F)N1[C@H]2CC[C@@H]1c1c[nH]c(=O)cc1C2 [Compound 141, (6S,9R)-N-(4-Bromo-5-chloro-2-fluorophenyl)-3-oxo-3,5,6,7,8,9-hexahydro-2H-6.9-epiminocyclohepta[c]pyridine-10-carboxamide] | < 500
12 | C=CC(=O)Nc1ccc(NC(=O)N2[C@H]3CC[C@@H]2c2ccnc(F)c2C3)cc1Cl [Compound 179, (5R,8S)-N-(4-Acrylamido-3-chlorophenyl)-1-fluoro-6,7,8,9-tetrahydro-5H-5,8-epiminocyclohepta[c]pyridine-10-carboxamide] | 500 to 5000
13 | O=C(Nc1ccc(Cl)cc1F)N1C2CCC1c1ccnc(F)c1C2 (racemic) [Compound 177, (±)-N-(4-Chloro-2-fluorophenyl)-1-fluoro-6,7,8,9-tetrahydro-5H-5,8-epiminocyclohepta[c]pyridine-10-carboxamide] | < 500
14 | O=C(Nc1ccc(Cl)c(Cl)c1)N1C2CCC1c1cnc(F)nc1C2 (racemic) [Compound 46, (±)-N-(3,4-Dichlorophenyl)-2-fluoro-6,7,8,9-tetrahydro-5H-5,8-epiminocyclohepta[d]pyrimidine-10-carboxamide] | < 500

Same assay, conditions: 1321N1-hrGPR65 cells, assay pH 7.2, cAMP HTRF; read-out: hGPR65 IC50 (activity class)

Row | Structure (SMILES) | IC50 [nM]
15 | O=C(Nc1ccc(-c2cnco2)cc1)N1[C@H]2CC[C@@H]1c1ccnc(F)c1C2 [Compound 188, (5R,8S)-1-Fluoro-N-(4-(oxazol-5-yl)phenyl)-6,7,8,9-tetrahydro-5H-5,8-epiminocyclohepta[c]pyridine-10-carboxamide] | 500 to 5000
16 | Cn1cc2c(cc1=O)C[C@@H]1CC[C@H]2N1C(=O)Nc1ccc(Cl)c(Cl)c1 [Compound 150, (6S,9R)—N-(3,4-Dichlorophenyl)-2-methyl-3-oxo-3,5,6,7,8,9-hexahydro-2H-6,9-epiminocyclohepta[c]pyridine-10-carboxamide] | 500 to 5000
17 | Cc1ncc2c(n1)CC1CCC2N1C(=O)Nc1ccc(Cl)c(Cl)c1 (racemic) [Compound 25, (±)-N-(3,4-Dichlorophenyl)-2-methyl-6,7,8,9-tetrahydro-5H-5,8-epiminocyclohepta[d]pyrimidine-10-carboxamide] | > 5000
18 | O=C(Nc1ccc(F)c(Cl)c1F)N1C2CCC1c1ccnc(F)c1C2 (racemic) [Compound 154, (±)-N-(3-Chloro-2,4-difluorophenyl)-1-fluoro-6,7,8,9-tetrahydro-5H-5,8-epiminocyclohepta[c]pyridine-10-carboxamide] | 500 to 5000
19 | COc1cc(Cl)c(Cl)cc1NC(=O)N1[C@H]2CC[C@@H]1c1ccnc(F)c1C2 [Compound 118, (5R,8S)—N-(4,5-dichloro-2-methoxyphenyl)-1-fluoro-6,7,8,9-tetrahydro-5H-5,8-epiminocyclohepta[c]pyridine-10-carboxamide] | 500 to 5000
20 | N#Cc1ccc(NC(=O)N2C3CCC2c2ccnc(F)c2C3)cc1 (racemic) [Compound 176, (±)-N-(4-Cyanophenyl)-1-fluoro-6,7,8,9-tetrahydro-5H-5,8-epiminocyclohepta[c]pyridine-10-carboxamide] | 500 to 5000
21 | O=C(Nc1ccc(-c2cscn2)cc1)N1[C@H]2CC[C@@H]1c1ccnc(F)c1C2 [Compound 186, (5R,8S)-1-Fluoro-N-(4-(thiazol-4-yl)phenyl)-6,7,8,9-tetrahydro-5H-5,8-epiminocyclohepta[c]pyridine-10-carboxamide] | 500 to 5000
22 | O=C(Nc1ccc(Cl)c(Cl)c1)N1C2CCC1c1cncc(F)c1C2 (racemic) [Compound 95, (±)-N-(3,4-Dichlorophenyl)-4-fluoro-6,7,8,9-tetrahydro-5H-6.9-epiminocyclohepta[c]pyridine-10-carboxamide] | 500 to 5000
23 | Nc1nccc2c1CC1CCC2N1C(=O)Nc1ccc(Cl)c(Cl)c1 (racemic) [Compound 63, (±)-1-amino-N-(3,4-dichlorophenyl)-6,7,8,9-tetrahydro-5H-5,8-epiminocyclohepta[c]pyridine-10-carboxamide] | > 5000
24 | O=C(Nc1ccc(Cl)c(Cl)c1)N1C2CCC1C(F)c1ncncc12 (racemic) [Compound 113, Cis-(±)-N-(3,4-Dichlorophenyl)-9-fluoro-6,7,8,9-tetrahydro-5H-5,8-epiminocyclohepta[d]pyrimidine-10-carboxamide] | 500 to 5000
25 | O=C(Nc1cccc(Cl)c1Cl)N1C2CCC1c1ccnc(F)c1C2 (racemic) [Compound 161, (±)-N-(2,3-Dichlorophenyl)-1-fluoro-6,7,8,9-tetrahydro-5H-5,8-epiminocyclohepta[c]pyridine-10-carboxamide] | 500 to 5000
26 | O=C(Nc1ccc(Cl)c(C(F)(F)F)c1)N1C2CCC1c1cncnc1C2 (racemic) [Compound 3, (±)-N-(4-Chloro-3-(trifluoromethyl)phenyl)-6,7,8,9-tetrahydro-5H-5,8-epiminocyclohepta[d]pyrimidine-10-carboxamide] | 500 to 5000

— patent US20230373989A1, “N-PHENYLAMINOCARBONYL PYRIDINO-, PYRIMIDINO AND BENZO-TROPANES AS MODULATORS OF GPR65” (PATHIOS THERAPEUTICS LIMITED, priority 2020, published 2023)
